{"source": "patent US20120214847A1", "about": "“2-[1-PHENYL-5-HYDROXY-4a-SUBSTITUTED-HEXAHYDROCYCLOPENTA[F]INDAZOL-5-YL]ETHYL PHENYL DERIVATIVES AS GLUCOCORTICOID RECEPTOR LIGANDS” (Merck Sharp & Dohme Corp., priority 2009, published 2012)", "data": [{"target": "T1, glucocorticoid receptor (Homo sapiens, UniProt P04150)", "T1 construct": "endogenous in cells; host or cells: HeLa (ATCC) cell lysate supernatant", "T1 sequence (P04150 1-777)": "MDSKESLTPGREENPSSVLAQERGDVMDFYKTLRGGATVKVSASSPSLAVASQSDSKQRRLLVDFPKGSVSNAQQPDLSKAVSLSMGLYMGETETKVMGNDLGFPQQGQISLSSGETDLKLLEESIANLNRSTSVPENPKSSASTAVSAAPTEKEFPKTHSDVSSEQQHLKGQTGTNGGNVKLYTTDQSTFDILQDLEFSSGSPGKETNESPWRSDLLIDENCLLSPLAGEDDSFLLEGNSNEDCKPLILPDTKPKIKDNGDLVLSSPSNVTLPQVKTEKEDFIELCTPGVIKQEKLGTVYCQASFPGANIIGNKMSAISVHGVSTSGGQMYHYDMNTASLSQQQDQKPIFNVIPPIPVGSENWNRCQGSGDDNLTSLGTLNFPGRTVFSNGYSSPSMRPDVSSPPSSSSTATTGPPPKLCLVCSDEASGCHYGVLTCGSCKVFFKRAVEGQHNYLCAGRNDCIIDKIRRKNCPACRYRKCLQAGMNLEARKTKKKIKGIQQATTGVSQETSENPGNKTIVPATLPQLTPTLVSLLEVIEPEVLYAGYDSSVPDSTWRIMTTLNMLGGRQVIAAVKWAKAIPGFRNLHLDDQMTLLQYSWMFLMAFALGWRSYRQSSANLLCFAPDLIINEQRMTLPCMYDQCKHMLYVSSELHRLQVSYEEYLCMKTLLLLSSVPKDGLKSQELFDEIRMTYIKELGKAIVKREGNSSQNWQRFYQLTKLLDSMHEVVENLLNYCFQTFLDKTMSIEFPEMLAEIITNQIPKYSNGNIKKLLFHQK", "test": "Ligand binding assay (GRBind), 3H-dexamethasone displacement in HeLa cell lysate", "details": "3H-DEX tracer", "experimental": "Binding Buffer: TEGM (10 mM Tris-HCl, 1 mM EDTA, 10% glycerol, 1 mM betamecaptoethanol, 10 mM Sodium Molybdate, pH 7.2)\n50% HAP Slurry: Calbiochem Hydroxylapatite, Fast Flow, in 10 mM Tris, pH 8.0 and 1 mM EDTA.\nWash Buffer: 40 mM Tris, pH7.5, 100 mM KCl, 1 mM EDTA and 1 mM EGTA. 95% EtOH Dexmethasone-methyl-3H, (DEXA*); (Amersham cat#TRK645) Dexamethasone(DEX) (Sigma, cat#01756):\nHydroxylapatite Fast Flow; Calbiochem Cat#391947\n25 Molybdate=Molybdic Acid (Sigma, M1651)\n5 Cells (Hall R. E., et al., European Journal of Cancer, 30A: 484-490 (1994)) HeLa (ATCC) cultured in RPMI 1640 (Gibed 11835-055) containing 20 mM Hepes, 4 mM L-glu, 10 ug/ml of human insulin (Sigma, 1-0259), 10% FBS and 20 uglml of Gentamicin (Gibco#15710072) are rinsed twice in PBS. Phenol red-free Trypsin-EDTA is diluted in the same PBS 1:10. The cell layers are rinsed with IX Trypsin, extra Trypsin is poured out, and the cell layers are incubated at 37° C. for 2 min. The flask is tapped and checked for signs of cell detachment. Once the cells begin to slide off the flask, the complete media is added. The cells are counted at this point, then diluted to the appropriate concentration and split into flasks or dishes for further culturing (Usually 1:3 to 1:6 dilution).\nPreparation of HeLa Cell Lysate\nWhen the cells are 70 to 85% confluent, they are detached as described above, and collected by centrifuging at 1000 g for 10 min at 4° C. The cell pellet is washed twice with TEGM (10 mM Tris-HCl, 1 mM EDTA, 10% glycerol, 1 mM beta-mercaptoethanol, 10 mM Sodium Molybdate, pH 7.2). After the final wash, the cells are resuspended in TEGM at a concentration of 10^7 cells/mL. The cell suspension is snap frozen in liquid nitrogen or ethanol/dry ice bath and transferred to −80° C. freezer on dry ice. Before setting up the binding assay, the frozen samples are left on ice-water to just thaw. Then the samples are centrifuged at 12,500 g to 20,000 g for 30 min at 4° C. The supernatant is used to set-up assay right away. If using 50 μL of supernatant, the test compound can be prepared in 50 μL of the TEGM buffer.\nProcedure for Multiple Compound Screening\n1×TEGM buffer is prepared, and the isotope-containing assay mixture is prepared in the following order: EtOH (2% final concentration in reaction), 3H-DEX (Amersham Biosciences) and 1×TEGM. [e.g. For 100 samples, 200 JlL (100×2) of EtOH+4.25 JlL of 1:10 ^3H-Dex stock+2300 μL (100×23) 1×TEGM]. The compound is serially diluted, e.g., if starting final conc. is 1 μM, and the compound is in 25 μL of solution, for duplicate samples, 75 μL of 4×1 μM solution is made and 3 μL of 100). 1M is added to 72 μL of buffer, and 1:5 serial dilution.\n25 μL of ^3H-DEX (6 nM) trace and 25 μL, compound solution are first mixed together, followed by addition of 50 μL receptor solution. The reaction is gently mixed, spun briefly at about 200 rpm and incubated at 4° C. overnight. 100 μL of 50% HAP slurry is prepared and added to the incubated reaction which is then vortexed and incubated on ice for 5 to 10 min. The reaction mixture is vortexed twice more to resuspend HAP while incubating reaction. The samples in 96-well format are then washed in wash buffer using the FilterMate™ Universal Harvester plate washer (Packard). The washing process transfers HAP pellet containing ligand-bound expressed receptor to Unifilter-96 GFIB filter plate (Packard). The HAP pellet on the filter plate is incubated with […] of MICROSCINT (Packard) scintillant for 30 min before being counted on the TopCount microscintillation counter (Packard). IC50s are calculated using DEX as a reference.", "units": {"Ki": "nM"}, "values": [{"smiles": "NC(=O)[C@H](F)c1c(F)cccc1CC[C@]1(O)CCC2=Cc3c(cnn3-c3ccc(F)cc3)C[C@@]21C1CC1", "note": "[Example 57, (2R)-2-(2-{2-[(4aR,5R)-4a-Cyclopropyl-1-(4-fluorophenyl)-5-hydroxy-1,4,4a,5,6,7-hexahydrocyclopenta[f]indazol-5-yl]ethyl}-6-fluorophenyl)-2-fluoroethanamide]", "Ki": 1.5}, {"smiles": "CS(=O)(=O)c1ccccc1CC[C@]1(O)CCC2=Cc3c(cnn3-c3ccc(F)cc3)C[C@@]21C1CC1", "note": "[Example 58, (4aR,5R)-4a-Cyclopropyl-1-(4-fluorophenyl)-5-{2-[2-(methylsulfonyl)phenyl]ethyl}-1,4,4a,5,6,7-hexahydrocyclopenta[f]indazol-5-ol]", "Ki": 0.88}, {"smiles": "CCS(=O)(=O)c1ccccc1CC[C@]1(O)CCC2=Cc3c(cnn3-c3ccc(F)cc3)C[C@@]21C1CC1", "note": "[Example 59, (4aR,5R)-4a-Cyclopropyl-5-{2-[2-(ethylsulfonyl)phenyl]ethyl}-1-(4-fluorophenyl)-1,4,4a,5,6,7-hexahydrocyclopenta[f]indazol-5-ol]", "Ki": 1.36}, {"smiles": "OC(C[C@]1(O)CCC2=Cc3c(cnn3-c3ccc(F)cc3)C[C@@]21C1CC1)c1ccccn1", "note": "(stereo partly drawn) [Example 78, (4aR,5R)-4a-Cyclopropyl-1-(4-fluorophenyl)-5-[2-hydroxy-2-(pyridin-2-yl)ethyl]-1,4,4a,5,6,7-hexahydrocyclopenta[f]indazol-5-ol]", "Ki": 2.96}, {"smiles": "CC[C@]12Cc3cnn(-c4ccc(F)cc4)c3C=C1CC[C@@]2(O)CC(O)c1cc(C#N)ccn1", "note": "(stereo partly drawn) [Example 72, 2-{2-[(4aS,5R)-4a-Ethyl-1-(4-fluorophenyl)-5-hydroxy-1,4,4a,5,6,7-hexahydrocyclopenta[f]indazol-5-yl]-1-hydroxyethyl}pyridine-4-carbonitrile]", "Ki": 6.25}, {"smiles": "CC[C@]12Cc3cnn(-c4ccc(F)cc4)c3C=C1CC[C@@]2(O)CCc1cc(C)ccn1", "note": "[Example 33, (4aS,5R)-4a-Ethyl-1-(4-fluorophenyl)-5-[2-(4-methylpyridin-2-yl)ethyl]-1,4,4a,5,6,7-hexahydrocyclopenta[f]indazol-5-ol]", "Ki": 2.33}, {"smiles": "CC[C@]12Cc3cnn(-c4ccc(F)cc4)c3C=C1CC[C@@]2(O)CCc1ccc(F)cc1C(N)=O", "note": "[Example 8, 2-{2-[(4aS,5R)-4a-Ethyl-1-(4-fluorophenyl)-5-hydroxy-1,4,4a,5,6,7-hexahydrocyclopenta[f]indazol-5-yl]ethyl}-5-fluorobenzamide]", "Ki": 1.27}, {"smiles": "CC[C@]12Cc3cnn(-c4ccc(F)cc4)c3C=C1CC[C@@]2(O)CCc1cccc(OC)c1C(N)=O", "note": "[Example 37, 2-{2-[(4aS,5R)-4a-Ethyl-1-(4-fluorophenyl)-5-hydroxy-1,4,4a,5,6,7-hexahydrocyclopenta[f]indazol-5-yl]ethyl}-6-methoxybenzamide]", "Ki": 2.02}, {"smiles": "CC[C@]12Cc3cnn(-c4ccc(F)cc4)c3C=C1CC[C@@]2(O)CCc1ncccc1F", "note": "[Example 17, (4aS,5R)-4a-Ethyl-1-(4-fluorophenyl)-5-[2-(3-fluoropyridin-2-yl)ethyl]-1,4,4a,5,6,7-hexahydrocyclopenta[f]indazol-5-ol]", "Ki": 1.44}, {"smiles": "CC[C@]12Cc3cnn(-c4ccc(F)cc4)c3C=C1CC[C@@]2(O)CC(O)c1cncc(F)c1", "note": "(stereo partly drawn) [Example 73, (4aS,5R)-4a-Ethyl-1-(4-fluorophenyl)-5-[2-(5-fluoropyridin-3-yl)-2-hydroxyethyl]-1,4,4a,5,6,7-hexahydrocyclopenta[f]indazol-5-ol]", "Ki": 5.67}, {"smiles": "CC[C@]12Cc3cnn(-c4ccc(F)cc4)c3C=C1CC[C@@]2(O)CC(O)c1ncccc1F", "note": "(stereo partly drawn) [Example 76, (4aS,5R)-4a-Ethyl-1-(4-fluorophenyl)-5-[2-(3-fluoropyridin-2-yl)-2-hydroxyethyl]-1,4,4a,5,6,7-hexahydrocyclopenta[f]indazol-5-ol]", "Ki": 20.8}, {"smiles": "NC(=O)CNC(=O)c1cccnc1CC[C@]1(O)CCC2=Cc3c(cnn3-c3ccc(F)cc3)C[C@@]21C1CC1", "note": "[Example 43, N-(2-Amino-2-oxoethyl)-2-{2-[(4aR,5R)-4a-cyclopropyl-1-(4-fluorophenyl)-5-hydroxy-1,4,4a,5,6,7-hexahydrocyclopenta[f]indazol-5-yl]ethyl}pyridine-3-carboxamide]", "Ki": 5.47}, {"smiles": "CC[C@]12Cc3cnn(-c4ccc(F)cc4)c3C=C1CC[C@@]2(O)CCc1nccc(OC)c1CC(N)=O", "note": "[Example 64, 2-(2-{2-[(4aS,5R)-4a-Ethyl-1-(4-fluorophenyl)-5-hydroxy-1,4,4a,5,6,7-hexahydrocyclopenta[f]indazol-5-yl]ethyl}-4-methoxypyridin-3-yl)acetamide]", "Ki": 11.5}, {"smiles": "O=C(NCCO)c1ccccc1CC[C@]1(O)CCC2=Cc3c(cnn3-c3ccc(F)cc3)C[C@@]21C1CC1", "note": "[Example 50, 2-{2-[(4aR,5R)-4a-Cyclopropyl-1-(4-fluorophenyl)-5-hydroxy-1,4,4a,5,6,7-hexahydrocyclopenta[f]indazol-5-yl]ethyl}-N-(2-hydroxyethyl)benzamide]", "Ki": 2.09}, {"smiles": "Cc1ccnc(CC[C@]2(O)CCC3=Cc4c(cnn4-c4ccc(F)cc4)C[C@@]32C2CC2)c1", "note": "[Example 36, (4aR,5R)-4a-Cyclopropyl-1-(4-fluorophenyl)-5-[2-(4-methylpyridin-2-yl)ethyl]-1,4,4a,5,6,7-hexahydrocyclopenta[f]indazol-5-ol]", "Ki": 1.63}, {"smiles": "NC(=O)c1cc(F)cnc1CC[C@]1(O)CCC2=Cc3c(cnn3-c3ccc(F)cc3)C[C@@]21C1CC1", "note": "[Example 4, 2-{2-[(4aR,5R)-4a-Cyclopropyl-1-(4-fluorophenyl)-5-hydroxy-1,4,4a,5,6,7-hexahydrocyclopenta[f]indazol-5-yl]ethyl}-5-fluoropyridine-3-carboxamide]", "Ki": 1.98}, {"smiles": "CC[C@]12Cc3cnn(-c4ccc(F)cc4)c3C=C1CC[C@@]2(O)CCc1ncccc1C(N)=O", "note": "[Example 52, 2-{2-[(4aS,5R)-4a-Ethyl-1-(4-fluorophenyl)-5-hydroxy-1,4,4a,5,6,7-hexahydrocyclopenta[f]indazol-5-yl]ethyl}pyridine-3-carboxamide]", "Ki": 9.83}, {"smiles": "CC[C@]12Cc3cnn(-c4ccc(F)cc4)c3C=C1CC[C@@]2(O)CCc1ccccc1S(=O)(=O)C(C)C", "note": "[Example 40, (4aS,5R)-4a-Ethyl-1-(4-fluorophenyl)-5-{2-[2-(propan-2-ylsulfonyl)phenyl]ethyl}-1,4,4a,5,6,7-hexahydrocyclopenta[f]indazol-5-ol]", "Ki": 2.45}]}]}
